Experimental data taken from EP4711369A1, “1H-[1,2,3]TRIAZOLO[4,5-H]QUINAZOLINE COMPOUNDS AS PROTEIN KINASE INHIBITORS” (Chengdu Cynogen Bio-Pharmaceutical Technology Co., Ltd., priority 2023, dated 2024).

Columns and labels:
CDK2/cyclin E = CDK2/cyclin E (Homo sapiens, UniProt P24941); assay: Assay of kinase activity (ADP-Glo); type: biochemical; conditions: kinase inhibitory activity, read-out: CDK2/E1 IC50
Procedure, shortened: (§1)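 Kinase preincubated 10 min with compound in 50 mM Hepes, 10 mM MgCl2, 0.01% Brij35, 2 mM DTT, then substrate/ATP added for 60 min at 25 °C. ADP formed measured by ADP-Glo luminescence; IC50 by nonlinear concentration-response fitting.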

CDK4/cyclin D1 = CDK4/cyclin D1 (Homo sapiens, UniProt P11802); assay: Assay of kinase activity (ADP-Glo); type: biochemical; conditions: kinase inhibitory activity
Procedure, shortened: as §1

[1] = system: Human ovarian cancer OVCAR3 cells; assay: Assay of cell proliferation (CellTiter-Glo); type: cell-based; conditions: Homo sapiens, OVCAR-3, 144 h, 6 days, read-out: OVCAR3 IC50 of cell proliferation inhibitory activity
Procedure, shortened: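 OVCAR3 cells, 2000/well in RPMI 1640 with 20% FBS, treated with nine 3-fold dilutions from 10 µM to 0.1 nM (0.5% DMSO) for 6 days at 37 °C. Viability by CellTiter-Glo luminescence; IC50 by four-parameter fit.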

[2] = system: human gastric cancer MKN1 cells; assay: Assay of cell proliferation (CellTiter-Glo); type: cell-based; conditions: Homo sapiens, MKN-1, 144 h; MNK1, 6 days; read-out: MKN1 IC50 of cell proliferation inhibitory activity
Procedure, shortened: (§2)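 Cells seeded per line at growth-adapted densities, treated 6 days at 37 °C/5% CO2 with nine 3-fold dilutions (10 µM to 0.1 nM final, 0.5% DMSO). Viability by CellTiter-Glo luminescence; IC50 from four-parameter fit.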

[3] = system: human colon cancer HCT-116 cells; assay: Assay of cell proliferation (CellTiter-Glo); type: cell-based; conditions: 144 h, 6 days, read-out: HCT-116 IC50 of cell proliferation inhibitory activity
Procedure, shortened: as §2

[4] = system: human breast cancer HCC1806 cells; assay: Assay of cell proliferation (CellTiter-Glo); type: cell-based; conditions: Homo sapiens, 144 h, 6 days, read-out: HCC1806 IC50 of cell proliferation inhibitory activity
Procedure, shortened: as §2

[5] = system: human acute myeloid leukemia MV-4-11 cells; assay: Assay of cell proliferation (CellTiter-Glo); type: cell-based; conditions: MV4-11, 144 h, 6 days, read-out: MV-4-11 IC50 of cell proliferation inhibitory activity
Procedure, shortened: as §2

[6] = system: human breast cancer MCF-7 cells; assay: Assay of cell proliferation (CellTiter-Glo); type: cell-based; conditions: 144 h, MCF7 cells, 6 days, read-out: MCF7 IC50 of cell proliferation inhibitory activity
Procedure, shortened: as §2

CDK6/cyclin D3 = CDK6/cyclin D3 (Homo sapiens, UniProt Q00534); assay: Assay of kinase activity (ADP-Glo); type: biochemical; conditions: kinase inhibitory activity
Procedure, shortened: (§3)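 ADP production quantified by luminescence after 60 min kinase reaction at 25 °C, started with substrate/ATP following 10 min enzyme-compound preincubation. Buffer: 50 mM Hepes, 10 mM MgCl2, 0.01% Brij35, 2 mM DTT. IC50 obtained by nonlinear curve fitting of inhibition data.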

CDK9/cyclin T1 = CDK9/cyclin T1 (Homo sapiens, UniProt P50750); assay: Assay of kinase activity (ADP-Glo); type: biochemical; conditions: kinase inhibitory activity
Procedure, shortened: as §3

CDK6/cyclin D3, sequence (Q00534 whole entry, species assumed): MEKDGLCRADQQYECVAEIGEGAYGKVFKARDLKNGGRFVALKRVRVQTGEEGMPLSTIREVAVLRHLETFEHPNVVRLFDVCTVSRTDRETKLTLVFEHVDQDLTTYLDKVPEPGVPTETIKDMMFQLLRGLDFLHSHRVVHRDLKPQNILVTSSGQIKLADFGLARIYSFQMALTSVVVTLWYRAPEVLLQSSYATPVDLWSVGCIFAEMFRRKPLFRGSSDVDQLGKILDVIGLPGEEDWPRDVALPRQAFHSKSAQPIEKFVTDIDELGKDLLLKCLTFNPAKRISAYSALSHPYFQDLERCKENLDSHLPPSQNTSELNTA
CDK6/cyclin D3, sequence (P30281 whole entry partner, species assumed): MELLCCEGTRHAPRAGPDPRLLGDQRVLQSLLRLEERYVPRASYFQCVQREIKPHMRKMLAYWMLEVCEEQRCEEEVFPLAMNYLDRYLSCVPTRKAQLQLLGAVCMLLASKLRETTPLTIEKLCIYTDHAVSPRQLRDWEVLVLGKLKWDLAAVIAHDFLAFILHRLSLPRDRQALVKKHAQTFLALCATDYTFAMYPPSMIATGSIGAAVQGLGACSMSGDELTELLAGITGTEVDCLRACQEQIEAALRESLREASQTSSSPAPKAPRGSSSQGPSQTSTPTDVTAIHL
CDK4/cyclin D1, sequence (P11802 whole entry, species assumed): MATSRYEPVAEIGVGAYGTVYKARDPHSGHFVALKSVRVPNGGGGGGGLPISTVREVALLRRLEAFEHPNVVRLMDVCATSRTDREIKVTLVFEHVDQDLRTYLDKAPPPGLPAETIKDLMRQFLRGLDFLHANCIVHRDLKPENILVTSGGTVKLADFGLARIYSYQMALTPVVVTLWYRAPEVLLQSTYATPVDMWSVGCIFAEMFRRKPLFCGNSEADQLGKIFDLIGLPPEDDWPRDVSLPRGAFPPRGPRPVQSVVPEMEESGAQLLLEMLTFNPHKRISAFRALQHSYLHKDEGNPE
CDK4/cyclin D1, sequence (P24385 whole entry partner, species assumed): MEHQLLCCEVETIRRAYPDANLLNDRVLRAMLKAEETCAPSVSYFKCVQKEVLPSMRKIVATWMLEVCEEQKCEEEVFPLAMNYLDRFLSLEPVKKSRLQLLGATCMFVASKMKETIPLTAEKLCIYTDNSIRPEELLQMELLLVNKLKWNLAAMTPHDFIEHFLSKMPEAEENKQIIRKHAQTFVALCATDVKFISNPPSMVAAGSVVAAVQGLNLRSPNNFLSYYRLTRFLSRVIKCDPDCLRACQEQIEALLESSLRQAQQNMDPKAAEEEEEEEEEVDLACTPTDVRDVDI
CDK9/cyclin T1, sequence (P50750 whole entry, species assumed): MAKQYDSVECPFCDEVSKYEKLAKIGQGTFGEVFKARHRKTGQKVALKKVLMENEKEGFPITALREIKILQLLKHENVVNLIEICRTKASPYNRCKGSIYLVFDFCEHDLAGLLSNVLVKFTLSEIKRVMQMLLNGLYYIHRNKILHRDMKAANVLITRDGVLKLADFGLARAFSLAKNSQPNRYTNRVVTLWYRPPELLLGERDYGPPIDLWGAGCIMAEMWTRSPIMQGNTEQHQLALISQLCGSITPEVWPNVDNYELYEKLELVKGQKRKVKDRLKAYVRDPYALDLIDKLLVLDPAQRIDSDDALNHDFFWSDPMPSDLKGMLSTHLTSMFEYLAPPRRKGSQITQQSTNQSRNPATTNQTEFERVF
CDK9/cyclin T1, sequence (O60563 whole entry partner, species assumed): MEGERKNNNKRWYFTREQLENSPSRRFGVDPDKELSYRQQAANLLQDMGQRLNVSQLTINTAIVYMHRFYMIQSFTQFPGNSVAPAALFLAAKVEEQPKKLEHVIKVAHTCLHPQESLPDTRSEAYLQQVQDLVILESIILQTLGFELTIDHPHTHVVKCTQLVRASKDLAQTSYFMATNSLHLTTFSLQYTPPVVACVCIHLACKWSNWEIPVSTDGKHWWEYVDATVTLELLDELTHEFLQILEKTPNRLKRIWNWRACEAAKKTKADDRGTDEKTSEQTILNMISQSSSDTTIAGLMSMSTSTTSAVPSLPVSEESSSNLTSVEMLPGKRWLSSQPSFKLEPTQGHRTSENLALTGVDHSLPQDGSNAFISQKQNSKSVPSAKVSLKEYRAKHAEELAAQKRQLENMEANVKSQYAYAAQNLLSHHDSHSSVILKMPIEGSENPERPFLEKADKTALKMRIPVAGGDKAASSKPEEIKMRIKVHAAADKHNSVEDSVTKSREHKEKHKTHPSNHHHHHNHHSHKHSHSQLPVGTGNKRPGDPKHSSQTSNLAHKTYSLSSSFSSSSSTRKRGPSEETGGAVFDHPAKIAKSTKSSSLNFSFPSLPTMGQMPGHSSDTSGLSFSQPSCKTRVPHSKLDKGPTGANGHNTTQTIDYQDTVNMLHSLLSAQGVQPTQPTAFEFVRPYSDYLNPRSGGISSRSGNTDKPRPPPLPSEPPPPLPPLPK

Compound | IC50 (CDK2/cyclin E) [nM] | IC50 (CDK4/cyclin D1) [nM] | IC50 [1] [nM] | IC50 [2] [nM] | IC50 [3] [nM] | IC50 [4] [nM] | IC50 [5] [nM] | IC50 [6] [nM] | IC50 (CDK6/cyclin D3) [nM] | IC50 (CDK9/cyclin T1) [nM]
CC(C)n1nnc2ccc3cnc(Nc4ccc(C(=O)N5CCNCC5)c(F)c4)nc3c21 [Example I-19, (2-Fluoro-4-((1-isopropyl-1H-[1,2,3]triazolo[4,5-H]quinazolin-8-yl)amino)phenyl)(piperazin-1-yl)methanone] | 1 | 2 | 49 | 85 | 21 | 379 | 10 | 42 | 12 | 8
CC1(O)CCCC1n1c(=O)c(C(F)F)cc2cnc(NC3CCN(S(C)(=O)=O)CC3)nc21 (stereo not shown) [PF06873600 (Ebvaciclib), reference compound] | – | – | 118 | 77 | 69 | 481 | 100 | 24 | – | 452
CC(C)n1nnc2ccc3cnc(Nc4ccc(C(=O)N5CC[C@H](N)C5)cc4)nc3c21 [Example I-4, (S)-(3-Aminopyrrolidin-1-yl)(4-((1-isopropyl-1H-[1,2,3]triazolo[4,5-H]quinazolin-8-yl)amino)phenyl)methanone] | 0.08 | 0.5 | 12 | 8 | 25 | 24 | 3 | 18 | 8 | 5
CN[C@@H]1CCN(C(=O)c2ccc(Nc3ncc4ccc5nnn(C(C)C)c5c4n3)cc2)C1 [Example I-7, (R)-(4-((1-Isopropyl-1H-[1,2,3]triazolo[4,5-H]quinazolin-8-yl)amino)phenyl)(3-(methylamino)pyrrolidin-1-yl)methanone] | 0.1 | 0.8 | 14 | 16 | 11 | 20 | 5 | 8 | 3 | 3
CC(C)n1nnc2ccc3cnc(Nc4ccc(C(=O)N5CCOCC5)cc4)nc3c21 [Example I-35, (4-((1-Isopropyl-1H-[1,2,3]triazolo[4,5-H]quinazolin-8-yl)amino)phenyl)(morpholino)methanone] | 0.7 | 2 | 224 | 21 | 95 | 233 | 16 | 162 | 12 | 6
CC(C)n1nnc2ccc3cnc(Nc4ccc(C(=O)N5CCC(O)C5)cc4)nc3c21 (stereo not shown) [Example I-3, (3-Hydroxypyrrolidin-1-yl)(4-((1-isopropyl-1H-[1,2,3]triazolo[4,5-H]quinazolin-8-yl)amino)phenyl)methanone] | 0.4 | 1 | 203 | 196 | 94 | 302 | – | – | 4 | 6
C[C@@H](n1nnc2ccc3cnc(Nc4ccc(C(=O)N5CCOCC5)cc4)nc3c21)C(C)(C)O [Example I-58, (R)-(4-((1-(3-Hydroxy-3-methylbutan-2-yl)-1H-[1,2,3]triazolo[4,5-H]quinazolin-8-yl)amino)phenyl)(morpholino)methanone] | 1 | 2 | 313 | 90 | – | 656 | 19 | – | 9 | 19
CC(C)n1nnc2ccc3cnc(Nc4ccc(C(=O)N5CCCN(C)CC5)cc4)nc3c21 [Example I-34, (4-((1-Isopropyl-1H-[1,2,3]triazolo[4,5-H]quinazolin-8-yl)amino)phenyl)(4-methyl-1,4-diazepan-1-yl)methanone] | 0.09 | 0.7 | 7 | 5 | – | 6 | 2 | – | 19 | 2
CC(C)n1nnc2ccc3cnc(Nc4ccc(C(=O)N5CCC(N)CC5)c(F)c4)nc3c21 [Example I-16, (4-Aminopiperidin-1-yl)(2-fluoro-4-((1-isopropyl-1H-[1,2,3]triazolo[4,5-H]quinazolin-8-yl)amino)phenyl)metha none] | 4 | 12 | 90 | 110 | – | 374 | 9 | – | 230 | 78
C[C@@]1(O)CCC[C@H]1n1nnc2ccc3cnc(Nc4ccc(S(=O)(=O)NCCO)cc4)nc3c21 [Example I-71] | 0.9 | 1 | 5 | 3 | – | 18 | 2 | – | 6 | 9
CN(C)[C@H]1CCN(C(=O)c2ccc(Nc3ncc4ccc5nnn([C@@H]6CCC[C@@]6(C)O)c5c4n3)cc2)C1 [Example I-64, ((S)-3-(Dimethylamino)pyrrolidin-1-yl)(4-((1-((1R,2R)-2-hydroxy-2-methylcyclopentyl)-1H-[1,2,3]triazolo[4,5-H]quinazolin-8-yl)amino)phenyl)methanone] | 0.1 | 0.6 | 7 | 3 | – | 12 | 2 | – | 4 | 3
CN[C@H]1CCN(C(=O)c2ccc(Nc3ncc4ccc5nnn(C(C)C)c5c4n3)cc2)C1 [Example I-6, (S)-(4-((1-Isopropyl-1H-[1,2,3]triazolo[4,5-H]quinazolin-8-yl)amino)phenyl)(3-(methylamino)pyrrolidin-1-yl)methanone] | 0.06 | 0.5 | 26 | 7 | – | 73 | 2 | – | 3 | 2
C[C@@]1(O)CCC[C@H]1n1nnc2ccc3cnc(Nc4ccc(C(=O)N5CCOCC5)cc4)nc3c21 [Example I-67, (4-((1-((1R,2R)-2-Hydroxy-2-methylcyclopentyl)-1H-[1,2,3]triazolo[4,5-H]quinazolin-8-yl)amino)phenyl)(morpholino)methanone] | 1 | 2 | 45 | 13 | – | 137 | 5 | – | 21 | 46
C[C@@H](n1nnc2ccc3cnc(Nc4ccc(C(=O)N5CCCN(C)CC5)cc4)nc3c21)C(C)(C)O [Example I-61, (R)-(4-((1-(3-Hydroxy-3-methylbutan-2-yl)-1H-[1,2,3]triazolo[4,5-H]quinazolin-8-yl)amino)phenyl)(4-methyl-1,4-diazepan-1-yl)methanone] | 0.9 | 1 | 11 | 8 | – | 8 | 4 | – | 2 | 16
CC(C)N[C@@H]1CCN(C(=O)c2ccc(Nc3ncc4ccc5nnn(C(C)C)c5c4n3)cc2)C1 [Example I-9, (R)-(4-((1-Isopropyl-1H-[1,2,3]triazolo[4,5-H]quinazolin-8-yl)amino)phenyl)(3-(isopropylamino)pyrrolidin-1-yl)methanone] | 0.2 | 1 | 26 | 11 | – | 53 | 3 | – | 15 | 2
